# Measurements as given in US20230277630A1, “METHODS AND COMPOSITIONS FOR TREATING AMYOTROPHIC LATERAL SCLEROSIS” (Amylyx Pharmaceuticals, Inc., priority 2022, published 2023).
# “And” between values parts separate entries of the source, which are not always exact repeats. Identical values can stand only once.
# Assays:
# [1] = CYP reaction phenotyping: CYP control (negative control without CYP enzymes); conditions: 20 min, pH 7.4
# Experimental: The reaction was initiated by the addition of NADPH, followed by incubation at 37° C.
# [2] = molecular target: T1, OCT2 (Homo sapiens, UniProt O15244); assay: OCT2 inhibitor (IC50) assessment, MPP+ uptake in transfected HEK cells
# T1 sequence (O15244 1-555): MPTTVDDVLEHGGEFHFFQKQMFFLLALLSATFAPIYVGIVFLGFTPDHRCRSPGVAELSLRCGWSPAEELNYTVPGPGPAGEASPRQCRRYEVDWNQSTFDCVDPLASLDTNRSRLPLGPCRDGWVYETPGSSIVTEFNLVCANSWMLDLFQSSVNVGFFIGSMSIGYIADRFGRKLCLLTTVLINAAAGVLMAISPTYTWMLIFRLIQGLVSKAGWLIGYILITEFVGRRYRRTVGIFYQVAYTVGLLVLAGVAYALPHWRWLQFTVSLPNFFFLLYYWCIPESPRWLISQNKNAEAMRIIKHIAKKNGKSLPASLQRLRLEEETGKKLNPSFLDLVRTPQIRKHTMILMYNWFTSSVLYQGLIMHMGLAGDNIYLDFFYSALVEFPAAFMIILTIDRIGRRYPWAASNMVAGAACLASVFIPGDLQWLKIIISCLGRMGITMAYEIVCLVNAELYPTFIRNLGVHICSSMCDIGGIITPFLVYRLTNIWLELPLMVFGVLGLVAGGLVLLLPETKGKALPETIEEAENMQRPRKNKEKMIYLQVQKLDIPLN
# [3] = molecular target: T2, MATE1 (Homo sapiens, UniProt Q96FL8); assay: MATE1 inhibitor (IC50) assessment, metformin uptake in transfected HEK cells
# T2 sequence (Q96FL8 1-570): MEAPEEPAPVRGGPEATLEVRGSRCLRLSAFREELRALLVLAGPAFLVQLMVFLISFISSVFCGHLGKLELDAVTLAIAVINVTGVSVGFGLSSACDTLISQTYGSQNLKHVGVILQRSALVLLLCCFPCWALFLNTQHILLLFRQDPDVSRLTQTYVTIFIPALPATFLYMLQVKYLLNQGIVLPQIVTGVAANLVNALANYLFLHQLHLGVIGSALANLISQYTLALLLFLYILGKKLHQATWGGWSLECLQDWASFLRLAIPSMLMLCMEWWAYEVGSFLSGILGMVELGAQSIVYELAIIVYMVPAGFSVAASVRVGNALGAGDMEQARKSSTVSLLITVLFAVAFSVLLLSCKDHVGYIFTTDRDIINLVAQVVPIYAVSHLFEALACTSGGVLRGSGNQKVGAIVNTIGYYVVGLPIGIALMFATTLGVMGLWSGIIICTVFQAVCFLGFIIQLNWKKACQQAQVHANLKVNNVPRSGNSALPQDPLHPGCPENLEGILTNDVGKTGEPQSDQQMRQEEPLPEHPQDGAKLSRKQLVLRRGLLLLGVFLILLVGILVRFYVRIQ
# [4] = system: P-gp and BCRP; assay: P-gp and BCRP substrate assessment, bidirectional permeability in C2BBe1 cells; conditions: C2BBe1 cells, 10 μM probe; for recovery at 10 μM / Papp A→B at 10 µM / Papp B→A at 10 µM: human; for Papp A→B at 10 µM / Papp B→A at 10 µM: Caco-2, pH 7.4, probe digoxin (P-gp), cladribine (BCRP); for Papp A→B at 10 µM: AP-to-BL Papp; for Papp B→A at 10 µM: BL-to-AP Papp
# Experimental: The P-gp and BCRP substrate assessment was conducted in C2BBe1 cell monolayers. […] LY was co-dosed with each dosing solution at a nominal concentration of 200 μM.
# The cell culture medium was aspirated, and the cell monolayers were rinsed once with HBSSg_7.4. […] For receiver samples, aliquots (300 μL) were taken at pre-selected time points. […] For donor samples, aliquots (50 μL) were taken at pre-selected time points without replacement.
# [5] = molecular target: MATE2K (Homo sapiens, UniProt Q86VL8); assay: MATE2K inhibitor (IC50) assessment, metformin uptake in transfected HEK cells
# MATE2K, sequence (Q86VL8 1-566 isoform Q86VL8-3): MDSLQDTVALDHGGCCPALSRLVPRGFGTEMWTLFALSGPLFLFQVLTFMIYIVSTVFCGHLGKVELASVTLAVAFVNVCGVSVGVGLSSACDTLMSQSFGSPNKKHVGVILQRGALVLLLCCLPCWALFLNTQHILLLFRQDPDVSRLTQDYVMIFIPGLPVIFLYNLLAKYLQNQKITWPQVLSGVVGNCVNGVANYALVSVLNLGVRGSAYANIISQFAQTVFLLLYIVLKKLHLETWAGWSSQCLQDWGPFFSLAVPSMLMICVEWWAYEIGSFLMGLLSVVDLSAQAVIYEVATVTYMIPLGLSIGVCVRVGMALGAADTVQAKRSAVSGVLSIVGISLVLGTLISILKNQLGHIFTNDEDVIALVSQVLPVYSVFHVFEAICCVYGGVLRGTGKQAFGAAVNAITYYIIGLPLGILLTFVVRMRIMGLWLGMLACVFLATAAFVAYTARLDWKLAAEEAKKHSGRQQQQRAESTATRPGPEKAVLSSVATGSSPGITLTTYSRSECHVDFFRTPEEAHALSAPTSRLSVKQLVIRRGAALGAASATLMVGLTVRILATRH
# [6] = 5 μM MPP+ alone, 2 min, replicates 1, 2 and Average
# [7] = batch used with Sol_1, Sol_3, and Sol_4, single replicates
# [8] = batch used with Sol_2, single replicates
# [9] = 50 μM Metformin alone, 10 min, HBSSg_8.5, replicates 1, 2 and Average
# [10] = absence of TUDCA and PB or positive inhibitor
# [11] = 50 μM Metformin alone, 10 min, HBSSg_8.5, replicates and Average
structure (smiles),measurement,setting,value
CCN(CC)Cc1cc(Nc2ccnc3cc(Cl)ccc23)ccc1O [Amodiaquine],Measured Metabolite,[1],0 µM
"C[n+]1ccc(-c2ccccc2)cc1 [MPP+, 1-methyl-4-phenylpyridinium]",Net Influx Rate of MPP+ (OCT2),[2]; 5 μM MPP+ alone,847 pmol/mg protein/minute
same,influx rate ratio of MPP+ (OCT2 over vector control),"[2]; 5 μM MPP+ alone, 2 min",48.9
same,"Influx Rate of MPP+, OCT2-HEK Cells",[2]; [6],896 pmol/mg protein/minute and 833 pmol/mg protein/minute
same,"Influx Rate of MPP+, Vector Control Cells",[2]; [6],19.0 pmol/mg protein/minute and 16.3 pmol/mg protein/minute
same,influx rate ratio of MPP+ (OCT2 over vector control),[2]; absence of TUDCA and PB or imipramine,48.9
CN/C(=N/CCSCc1nc[nH]c1C)NC#N [cimetidine],Percentage Inhibition of MATE1,[3]; 50 μM Metformin + 100 μM Cimetidine,99.2%
same,inhibition of metformin uptake in MATE1-transfected cells,[3]; known inhibitor,99.2%
C[C@H]1O[C@@H](O[C@H]2[C@@H](O)C[C@H](O[C@H]3[C@@H](O)C[C@H](O[C@H]4CC[C@@]5(C)[C@H](CC[C@@H]6[C@@H]5C[C@@H](O)[C@]5(C)[C@@H](C7=CC(=O)OC7)CC[C@]65O)C4)O[C@@H]3C)O[C@@H]2C)C[C@H](O)[C@@H]1O [digoxin],AP-to-BL Papp,[4]; [7],0.350 10^−6 cm/s and 0.234 10^−6 cm/s
same,AP-to-BL Recovery,[4]; [7],95.3%
same,BL-to-AP Papp,[4]; [7],14.6 10^−6 cm/s and 11.2 10^−6 cm/s
same,BL-to-AP Recovery,[4]; [7],94.9% and 83.1%
same,AP-to-BL Papp,[4]; [8],0.381 10^−6 cm/s and 0.298 10^−6 cm/s
same,AP-to-BL Recovery,[4]; [8],92.4%
same,BL-to-AP Papp,[4]; [8],12.1 10^−6 cm/s and 12.8 10^−6 cm/s
same,BL-to-AP Recovery,[4]; [8],96.7% and 90.2%
same,recovery at 10 μM,"[4]; Caco-2, pH 7.4, AP-to-BL Recovery, batch used with Sol_1, Sol_3, and Sol_4, Average",89.5%
same,recovery at 10 μM,"[4]; Caco-2, pH 7.4, AP-to-BL Recovery, batch used with Sol_1, Sol_3, and Sol_4, single replicates",90.9%
same,recovery at 10 μM,"[4]; Caco-2, pH 7.4, AP-to-BL Recovery, batch used with Sol_2, Average",86.3%
same,recovery at 10 μM,"[4]; Caco-2, pH 7.4, AP-to-BL Recovery, batch used with Sol_2, single replicates",77.9%
same,recovery at 10 μM,"[4]; Caco-2, pH 7.4, BL-to-AP Recovery, batch used with Sol_1, Sol_3, and Sol_4, Average",87.4%
same,recovery at 10 μM,"[4]; Caco-2, pH 7.4, BL-to-AP Recovery, batch used with Sol_1, Sol_3, and Sol_4, single replicates",84.1%
same,recovery at 10 μM,"[4]; Caco-2, pH 7.4, BL-to-AP Recovery, batch used with Sol_2, Average",92.1%
same,recovery at 10 μM,"[4]; Caco-2, pH 7.4, BL-to-AP Recovery, batch used with Sol_2, single replicates",89.5%
same,Papp A→B at 10 µM,[4]; [7],0.326 ×10⁻⁶ cm/s
same,Papp A→B at 10 µM,"[4]; batch used with Sol_2, Average",0.334 ×10⁻⁶ cm/s
same,Papp A→B at 10 µM,[4]; [8],0.323 ×10⁻⁶ cm/s
same,Papp B→A at 10 µM,"[4]; batch used with Sol_1, Sol_3, and Sol_4, Average",12.6 ×10⁻⁶ cm/s
same,Papp B→A at 10 µM,[4]; [7],12.1 ×10⁻⁶ cm/s
same,Papp B→A at 10 µM,"[4]; batch used with Sol_2, Average",12.8 ×10⁻⁶ cm/s
same,Papp B→A at 10 µM,[4]; [8],13.5 ×10⁻⁶ cm/s
CN(C)C(=N)N=C(N)N [metformin],Net Influx Rate of Metformin (MATE2K),[5]; 50 μM Metformin alone,36.1 pmol/mg protein/minute
same,influx rate ratio of metformin (MATE2K over vector control),[5]; 50 μM Metformin alone,2.70
same,"Influx Rate of Metformin, MATE2K HEK Cells",[5]; [9],54.5 pmol/mg protein/minute and 60.2 pmol/mg protein/minute
same,"Influx Rate of Metformin, Vector Control Cells",[5]; [9],19.6 pmol/mg protein/minute and 22.8 pmol/mg protein/minute
same,influx rate ratio of metformin (MATE2K over vector control),[5]; [10],2.70
same,Net Influx Rate of Metformin (MATE1),[3]; 50 μM Metformin alone,572 pmol/mg protein/minute
same,influx rate ratio of metformin (MATE1 over vector control),[3]; 50 μM Metformin alone,43.4
same,"Influx Rate of Metformin, MATE1-HEK Cells",[3]; [11],515 pmol/mg protein/minute and 656 pmol/mg protein/minute
same,"Influx Rate of Metformin, Vector Control Cells",[3]; [11],15.6 pmol/mg protein/minute and 11.3 pmol/mg protein/minute
same,influx rate ratio of metformin (MATE1 over vector control),[3]; [10],43.4
